Measured values as given in publication PMC11314561, “Design and Synthesis of Novel Aminoindazole-pyrrolo[2,3-b]pyridine Inhibitors of IKKα That Selectively Perturb Cellular Non-Canonical NF-κB Signalling” (Molecules, 2024).

Key:
Experiment in all cases: kinase panel
Format in all cases: biochemical
[1] = target: T1, MKK7β(h) (Homo sapiens, UniProt O14733)
T1 sequence (O14733 1-419): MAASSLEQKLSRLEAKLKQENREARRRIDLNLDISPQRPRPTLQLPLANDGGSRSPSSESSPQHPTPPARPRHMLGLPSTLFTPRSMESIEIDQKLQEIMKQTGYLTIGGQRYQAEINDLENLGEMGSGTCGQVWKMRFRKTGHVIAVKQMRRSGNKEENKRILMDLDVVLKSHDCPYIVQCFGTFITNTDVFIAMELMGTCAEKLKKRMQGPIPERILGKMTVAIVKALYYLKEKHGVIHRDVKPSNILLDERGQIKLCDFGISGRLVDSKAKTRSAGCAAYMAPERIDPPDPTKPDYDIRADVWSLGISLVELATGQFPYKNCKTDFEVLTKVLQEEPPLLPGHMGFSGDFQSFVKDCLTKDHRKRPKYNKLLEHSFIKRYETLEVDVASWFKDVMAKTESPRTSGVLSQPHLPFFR
How it was run: (§1)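 Three compounds in the series were profiled against a panel of 231 kinases, and activity is reported as % inhibition. For one compound, a subset of 98 kinases was selected on the basis of its structural similarity to another series member.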

[2] = target: CaMKIδ(h) (Homo sapiens, UniProt Q8IU85)
How it was run: as §1

[3] = target: FGFR3(h) (Homo sapiens, UniProt P22607)
How it was run: as §1

[4] = target: MINK(h) (Homo sapiens, UniProt Q8N4C8)
How it was run: as §1

[5] = target: Met(h) (Homo sapiens, UniProt P08581)
How it was run: as §1

[6] = target: HIPK1(h) (Homo sapiens, UniProt Q86Z02)
How it was run: as §1

[7] = target: CDK2/cyclinA(h) (Homo sapiens, UniProt P24941)
How it was run: as §1

[8] = target: ErbB4(h) (Homo sapiens, UniProt Q15303)
How it was run: as §1

[9] = target: Flt1(h) (Homo sapiens, UniProt P17948)
How it was run: as §1

[10] = target: T2, GCK(h) (Homo sapiens, UniProt Q12851)
T2 sequence (Q12851 1-820): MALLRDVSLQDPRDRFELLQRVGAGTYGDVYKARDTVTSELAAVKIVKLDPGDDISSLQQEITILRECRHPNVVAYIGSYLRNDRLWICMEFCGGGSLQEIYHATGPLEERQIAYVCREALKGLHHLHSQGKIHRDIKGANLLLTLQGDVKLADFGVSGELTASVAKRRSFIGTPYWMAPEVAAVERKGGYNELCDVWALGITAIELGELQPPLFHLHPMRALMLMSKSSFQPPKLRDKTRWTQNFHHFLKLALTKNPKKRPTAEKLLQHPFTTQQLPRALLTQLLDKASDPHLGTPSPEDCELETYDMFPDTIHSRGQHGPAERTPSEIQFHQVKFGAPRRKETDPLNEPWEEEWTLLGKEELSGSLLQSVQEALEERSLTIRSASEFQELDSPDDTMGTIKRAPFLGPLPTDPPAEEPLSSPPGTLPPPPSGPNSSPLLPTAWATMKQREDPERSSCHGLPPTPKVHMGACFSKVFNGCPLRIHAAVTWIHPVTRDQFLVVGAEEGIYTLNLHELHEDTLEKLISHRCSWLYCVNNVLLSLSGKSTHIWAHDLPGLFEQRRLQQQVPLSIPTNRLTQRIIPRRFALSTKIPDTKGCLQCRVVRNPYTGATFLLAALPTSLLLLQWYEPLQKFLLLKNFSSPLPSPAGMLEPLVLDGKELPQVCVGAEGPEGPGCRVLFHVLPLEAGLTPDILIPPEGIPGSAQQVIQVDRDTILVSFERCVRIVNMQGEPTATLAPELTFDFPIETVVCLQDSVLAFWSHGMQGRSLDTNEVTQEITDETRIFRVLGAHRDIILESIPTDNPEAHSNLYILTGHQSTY
How it was run: as §1

[11] = target: mTOR(h) (Homo sapiens, UniProt P42345)
How it was run: as §1

[12] = target: TrkB(h) (Homo sapiens, UniProt Q16620)
How it was run: as §1

[13] = target: T3, TAK1(h) (Homo sapiens, UniProt O43318)
T3 sequence (O43318 1-303 limits assumed): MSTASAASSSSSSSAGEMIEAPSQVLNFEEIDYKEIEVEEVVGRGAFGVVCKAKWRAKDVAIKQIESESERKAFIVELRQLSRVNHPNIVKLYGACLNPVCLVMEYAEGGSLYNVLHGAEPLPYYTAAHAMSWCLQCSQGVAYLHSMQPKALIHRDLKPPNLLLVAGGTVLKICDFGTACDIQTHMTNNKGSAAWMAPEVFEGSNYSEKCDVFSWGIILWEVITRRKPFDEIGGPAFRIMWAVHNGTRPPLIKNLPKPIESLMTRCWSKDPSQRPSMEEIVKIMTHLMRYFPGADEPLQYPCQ
How it was run: as §1

[14] = target: ROCK-II(h) (Homo sapiens, UniProt O75116)
How it was run: as §1

[15] = target: CDK5/p25(h) (Homo sapiens, UniProt Q00535)
How it was run: as §1

Sequence of HIPK1(h) (Q86Z02 whole entry): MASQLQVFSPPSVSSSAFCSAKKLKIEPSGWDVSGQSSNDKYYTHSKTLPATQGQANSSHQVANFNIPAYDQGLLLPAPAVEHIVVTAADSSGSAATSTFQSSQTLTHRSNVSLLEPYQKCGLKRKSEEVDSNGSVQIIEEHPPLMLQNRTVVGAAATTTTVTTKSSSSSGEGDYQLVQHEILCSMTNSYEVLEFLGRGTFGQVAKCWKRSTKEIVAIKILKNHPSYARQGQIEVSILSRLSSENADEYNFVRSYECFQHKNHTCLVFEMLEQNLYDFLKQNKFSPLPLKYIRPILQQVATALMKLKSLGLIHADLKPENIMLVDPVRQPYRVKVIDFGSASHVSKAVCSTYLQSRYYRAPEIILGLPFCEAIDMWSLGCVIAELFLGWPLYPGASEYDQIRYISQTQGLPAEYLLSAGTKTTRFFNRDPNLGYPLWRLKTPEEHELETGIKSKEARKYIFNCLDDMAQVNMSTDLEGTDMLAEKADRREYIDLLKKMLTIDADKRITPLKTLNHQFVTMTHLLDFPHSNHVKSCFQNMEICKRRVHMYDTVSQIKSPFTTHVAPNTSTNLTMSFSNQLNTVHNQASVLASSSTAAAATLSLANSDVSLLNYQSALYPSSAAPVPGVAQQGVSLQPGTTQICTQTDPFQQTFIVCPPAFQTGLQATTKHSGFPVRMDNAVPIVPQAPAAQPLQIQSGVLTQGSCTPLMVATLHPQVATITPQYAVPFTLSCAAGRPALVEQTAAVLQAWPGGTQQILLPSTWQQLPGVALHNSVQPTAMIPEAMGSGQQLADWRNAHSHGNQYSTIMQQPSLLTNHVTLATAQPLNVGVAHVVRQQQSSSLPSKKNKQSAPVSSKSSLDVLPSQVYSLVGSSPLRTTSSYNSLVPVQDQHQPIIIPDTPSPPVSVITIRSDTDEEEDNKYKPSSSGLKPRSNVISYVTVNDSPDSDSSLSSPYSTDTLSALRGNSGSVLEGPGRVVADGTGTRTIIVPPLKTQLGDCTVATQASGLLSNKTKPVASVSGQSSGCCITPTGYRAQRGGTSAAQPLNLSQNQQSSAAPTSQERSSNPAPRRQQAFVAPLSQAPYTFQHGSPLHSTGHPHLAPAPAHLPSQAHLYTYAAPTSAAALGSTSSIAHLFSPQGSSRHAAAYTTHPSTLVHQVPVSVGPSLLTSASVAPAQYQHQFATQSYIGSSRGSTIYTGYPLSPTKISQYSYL
Sequence of CDK5/p25(h) (Q00535 whole entry): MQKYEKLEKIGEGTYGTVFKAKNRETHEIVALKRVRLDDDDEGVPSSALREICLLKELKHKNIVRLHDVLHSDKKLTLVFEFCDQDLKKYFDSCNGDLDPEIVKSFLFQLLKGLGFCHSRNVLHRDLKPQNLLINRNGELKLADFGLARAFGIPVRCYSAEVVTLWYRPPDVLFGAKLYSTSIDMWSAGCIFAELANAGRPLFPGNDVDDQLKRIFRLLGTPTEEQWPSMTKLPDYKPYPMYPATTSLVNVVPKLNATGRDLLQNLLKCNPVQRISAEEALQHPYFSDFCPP
Sequence of CDK5/p25(h) (Q15078 99-307 partner limits assumed): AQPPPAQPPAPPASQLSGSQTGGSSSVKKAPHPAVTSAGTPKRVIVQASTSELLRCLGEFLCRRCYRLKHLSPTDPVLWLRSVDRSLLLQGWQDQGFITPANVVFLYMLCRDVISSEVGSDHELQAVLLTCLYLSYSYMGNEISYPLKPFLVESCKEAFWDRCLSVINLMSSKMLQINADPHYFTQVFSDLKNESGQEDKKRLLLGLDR
Sequence of CaMKIδ(h) (Q8IU85 whole entry): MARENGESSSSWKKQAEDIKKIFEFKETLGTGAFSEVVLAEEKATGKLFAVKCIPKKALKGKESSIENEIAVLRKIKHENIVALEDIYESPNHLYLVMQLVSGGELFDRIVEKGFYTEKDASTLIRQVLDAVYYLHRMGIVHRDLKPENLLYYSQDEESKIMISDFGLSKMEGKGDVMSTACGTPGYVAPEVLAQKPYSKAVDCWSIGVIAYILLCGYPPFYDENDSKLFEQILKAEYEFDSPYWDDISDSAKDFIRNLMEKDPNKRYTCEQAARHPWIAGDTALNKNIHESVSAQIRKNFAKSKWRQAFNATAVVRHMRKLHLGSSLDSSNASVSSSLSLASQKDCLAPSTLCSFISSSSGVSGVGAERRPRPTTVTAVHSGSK
Sequence of ErbB4(h) (Q15303 26-1308): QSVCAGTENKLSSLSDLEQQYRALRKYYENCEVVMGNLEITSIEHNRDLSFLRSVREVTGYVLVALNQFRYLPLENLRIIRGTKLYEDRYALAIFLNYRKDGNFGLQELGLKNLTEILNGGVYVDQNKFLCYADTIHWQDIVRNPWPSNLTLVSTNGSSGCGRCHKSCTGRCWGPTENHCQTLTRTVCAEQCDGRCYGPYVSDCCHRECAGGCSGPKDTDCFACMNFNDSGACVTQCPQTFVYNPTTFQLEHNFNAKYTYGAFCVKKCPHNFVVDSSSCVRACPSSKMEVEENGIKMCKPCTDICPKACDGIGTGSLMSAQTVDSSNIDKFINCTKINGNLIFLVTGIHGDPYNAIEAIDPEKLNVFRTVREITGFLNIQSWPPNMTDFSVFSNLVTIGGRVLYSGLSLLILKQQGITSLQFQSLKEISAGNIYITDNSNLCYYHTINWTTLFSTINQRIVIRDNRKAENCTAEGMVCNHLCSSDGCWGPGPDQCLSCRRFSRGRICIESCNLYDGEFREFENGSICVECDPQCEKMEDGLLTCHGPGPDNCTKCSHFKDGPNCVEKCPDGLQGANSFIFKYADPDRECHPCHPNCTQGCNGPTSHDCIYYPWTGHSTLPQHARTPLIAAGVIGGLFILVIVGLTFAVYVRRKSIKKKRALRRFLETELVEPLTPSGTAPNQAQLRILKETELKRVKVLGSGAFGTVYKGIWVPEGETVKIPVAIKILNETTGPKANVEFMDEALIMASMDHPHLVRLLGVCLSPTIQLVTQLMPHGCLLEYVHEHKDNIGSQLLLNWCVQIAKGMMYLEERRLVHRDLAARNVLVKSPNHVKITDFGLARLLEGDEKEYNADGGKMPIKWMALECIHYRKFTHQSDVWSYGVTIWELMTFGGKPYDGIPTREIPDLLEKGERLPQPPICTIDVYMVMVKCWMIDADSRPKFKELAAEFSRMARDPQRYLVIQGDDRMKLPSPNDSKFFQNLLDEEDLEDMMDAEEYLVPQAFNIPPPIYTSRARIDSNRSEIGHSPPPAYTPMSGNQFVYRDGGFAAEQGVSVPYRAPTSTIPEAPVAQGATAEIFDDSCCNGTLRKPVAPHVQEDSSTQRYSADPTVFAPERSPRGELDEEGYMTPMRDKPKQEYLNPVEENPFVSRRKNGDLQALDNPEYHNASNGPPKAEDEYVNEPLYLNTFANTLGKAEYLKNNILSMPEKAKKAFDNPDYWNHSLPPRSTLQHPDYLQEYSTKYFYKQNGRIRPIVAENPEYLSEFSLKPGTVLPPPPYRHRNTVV
Sequence of ROCK-II(h) (O75116 whole entry): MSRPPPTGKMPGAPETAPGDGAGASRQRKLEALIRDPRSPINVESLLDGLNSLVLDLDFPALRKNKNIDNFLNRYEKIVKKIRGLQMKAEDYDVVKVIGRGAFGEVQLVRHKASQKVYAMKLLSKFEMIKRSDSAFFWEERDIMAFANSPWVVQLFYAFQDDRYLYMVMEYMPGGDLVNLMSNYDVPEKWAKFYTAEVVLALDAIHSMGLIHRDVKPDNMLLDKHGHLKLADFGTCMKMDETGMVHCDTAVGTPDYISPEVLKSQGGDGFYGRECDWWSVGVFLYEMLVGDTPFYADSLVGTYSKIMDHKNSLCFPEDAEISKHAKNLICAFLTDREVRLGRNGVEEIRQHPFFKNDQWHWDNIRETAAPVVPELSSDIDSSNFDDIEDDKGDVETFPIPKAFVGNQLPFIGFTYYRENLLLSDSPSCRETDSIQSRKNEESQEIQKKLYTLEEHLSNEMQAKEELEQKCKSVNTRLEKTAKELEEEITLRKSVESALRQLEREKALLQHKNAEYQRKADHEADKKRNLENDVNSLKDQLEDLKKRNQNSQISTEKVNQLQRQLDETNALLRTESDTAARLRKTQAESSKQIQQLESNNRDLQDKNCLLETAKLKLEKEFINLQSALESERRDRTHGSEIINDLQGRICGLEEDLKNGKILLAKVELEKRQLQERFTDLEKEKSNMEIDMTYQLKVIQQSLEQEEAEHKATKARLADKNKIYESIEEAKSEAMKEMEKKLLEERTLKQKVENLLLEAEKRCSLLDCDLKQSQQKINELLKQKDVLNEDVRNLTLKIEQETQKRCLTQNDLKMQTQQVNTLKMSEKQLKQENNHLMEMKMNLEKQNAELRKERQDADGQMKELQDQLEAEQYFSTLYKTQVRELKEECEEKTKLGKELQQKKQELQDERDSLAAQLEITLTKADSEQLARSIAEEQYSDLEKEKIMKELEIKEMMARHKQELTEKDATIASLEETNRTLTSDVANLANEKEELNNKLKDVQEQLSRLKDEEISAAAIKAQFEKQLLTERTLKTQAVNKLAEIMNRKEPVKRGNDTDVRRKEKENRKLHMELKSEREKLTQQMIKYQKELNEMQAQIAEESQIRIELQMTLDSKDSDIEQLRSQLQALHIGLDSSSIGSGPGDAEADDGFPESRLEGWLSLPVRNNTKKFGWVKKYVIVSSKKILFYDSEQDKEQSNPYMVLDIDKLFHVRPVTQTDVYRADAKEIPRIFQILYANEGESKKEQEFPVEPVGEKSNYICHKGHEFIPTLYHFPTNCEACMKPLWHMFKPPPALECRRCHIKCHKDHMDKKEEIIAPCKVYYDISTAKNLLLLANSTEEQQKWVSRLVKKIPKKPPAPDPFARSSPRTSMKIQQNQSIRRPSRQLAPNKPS

Row | inhibition at 1 µM [1] [%] | inhibition at 1 µM [2] [%] | inhibition at 1 µM [3] [%] | inhibition at 1 µM [4] [%] | inhibition at 1 µM [5] [%] | inhibition at 1 µM [6] [%] | inhibition at 1 µM [7] [%] | inhibition at 1 µM [8] [%] | inhibition at 1 µM [9] [%] | inhibition at 1 µM [10] [%] | inhibition at 1 µM [11] [%] | inhibition at 1 µM [12] [%] | inhibition at 1 µM [13] [%] | inhibition at 1 µM [14] [%] | inhibition at 1 µM [15] [%] | SMILES
1 | 11 | 24 | 0 | 41 | -3 | 5 | 37 | -5 | 6 | 71 | 0 | -34 | 0 | 25 | 92 | Nc1n[nH]c2ccc(-c3ccnc4[nH]c(-c5ccnc(OCc6ccccc6)c5)cc34)cc12 [Compound 6g [SU1349]]
2 | 80 | -8 | 77 | 92 | 61 | 14 | 99 | 20 | 94 | 98 | 10 | 65 | 28 | 89 | 101 | Nc1n[nH]c2ccc(-c3ccnc4[nH]c(-c5ccccc5)cc34)cc12 [Compound 4]
3 | 99 | 9 | 41 | 51 | 14 | -11 | 61 | 14 | 58 | 86 | 8 | -37 | 6 | 58 | 96 | Nc1n[nH]c2ccc(-c3ccnc4[nH]c(-c5cccc(OCc6ccccc6)c5)cc34)cc12 [Compound 5r [SU1261]]
